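Dose response: 5 concentrations. Exposure: 48 h. Format: 96-well plates. Endpoint: linear interpolation; highest concentration if not reached. At the GI50, growth is halved.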 Calls of active or inactive are those of the source. Rule as the data show it: active = GI50 up to about 1.1 µM and inactive = higher. Some results are limits rather than exact numbers.

The values that follow come from ChEMBL document CHEMBL1201862, “PubChem BioAssay data set” (2004).

Some test systems named below: UACC-62; EKVX; SF-539; NCI-H522; RPMI-8226; U-251; OVCAR-4; SNB-19; HCT-15; SW-620; KM12; UACC-257; SK-MEL-28; BT-549; SN12C; OVCAR-5; NCI/ADR-RES; SF-268; SK-MEL-5; DU-145.
What all share (assay): growth of human tumour cells (NCI), 48 h

`N#Cc1c(-c2ccc(Cl)cc2)c2c([nH]c1=O)-c1cc([N+](=O)[O-])ccc1CCC2`: the GI50 with UACC-62 is 13.5 µM (inactive); with EKVX it was 17.1 µM (inactive); with SF-539, 17.9 µM (inactive); in the test with NCI-H522, 13.3 µM (inactive); in the test on RPMI-8226, 86.7 µM (inactive); with U-251 it was 17.5 µM (inactive). The GI50 in the test on OVCAR-4 was 19.6 µM (inactive); in the test with SNB-19 it was 20.5 µM (inactive); in the test with HCT-15, 14.3 µM; in the test with SW-620, 33.2 µM (inactive); in the test with KM12, 16.4 µM (inactive); in the test on UACC-257, 21.1 µM (inactive). Also, the GI50 in the test on SK-MEL-28 is 21.2 µM (inactive); with BT-549, 15.2 µM (inactive); in the test with SN12C it was 17.2 µM (inactive); in the test on OVCAR-5, 17.2 µM (inactive); in the test on NCI/ADR-RES, 20.8 µM (inactive); in the test on SF-268, 17.3 µM (inactive). The GI50 with SK-MEL-5 is 16.6 µM (inactive); with DU-145 it was 35.8 µM (inactive).
As to `O=c1[nH]c2nc3ccccc3c(=O)n2/c1=C/c1ccc(O)cc1`, the GI50 in the test with UACC-62 was 27 µM (inactive); in the test on EKVX, 54.3 µM (inactive); with SF-539, 21.3 µM (inactive); with NCI-H522, 23.2 µM (inactive); with RPMI-8226, 16.9 µM (inactive); in the test on U-251, 26.2 µM (inactive). Further, the GI50 in the test on OVCAR-4 is > 100 µM (inactive); in the test with SNB-19 it was 21 µM (inactive); in the test with HCT-15 it was 30.9 µM; with SW-620, 22.6 µM (inactive); in the test with KM12, 29.6 µM (inactive); in the test on UACC-257 it was 56.8 µM (inactive). The GI50 with SK-MEL-28 is 28.3 µM (inactive); in the test with BT-549, 32.1 µM (inactive); in the test with SN12C, 30.6 µM (inactive); with OVCAR-5, > 100 µM (inactive); in the test on NCI/ADR-RES, 41.7 µM (inactive); in the test with SF-268, 25.4 µM (inactive). In addition, the GI50 in the test with SK-MEL-5 was 52.7 µM (inactive); in the test with DU-145 it was 30.8 µM (inactive).
Take `COc1ccc(COCC[C@H](C)OC2OC(CO[Si](C)(C)C(C)(C)C)C(O)C(O)C2O)cc1` (stereo not given in full): the GI50 with UACC-62, in the test with EKVX, in the test on SF-539, in the test on NCI-H522, with RPMI-8226 and with U-251 was > 100 µM (inactive) throughout. The GI50 in the test with OVCAR-4 was > 100 µM (inactive); in the test on SNB-19, > 100 µM (inactive); in the test with HCT-15, greater than 100 µM; with SW-620, > 100 µM (inactive); in the test on KM12, > 100 µM (inactive); with UACC-257 it was > 100 µM (inactive). In addition, the GI50 in the test with SK-MEL-28, in the test with BT-549, with SN12C, in the test on OVCAR-5, with NCI/ADR-RES and in the test on SF-268 was > 100 µM (inactive) in each case. The GI50 in the test on SK-MEL-5 and in the test on DU-145 was > 100 µM (inactive) in each case.
For the compound `COC(=O)c1sc2c(c1C(=O)OC)/C(=N/c1ccc(OC)cc1)S/C2=N\c1ccc(OC)cc1`, the GI50 in the test on UACC-62 is 1.45 µM (inactive); with EKVX, 1.55 µM (inactive); with SF-539, 0.274 µM (active); in the test on NCI-H522, 0.541 µM (active); in the test with RPMI-8226, 0.275 µM (active); in the test on U-251, 0.348 µM (active). Also, the GI50 was 1.35 µM (inactive) with OVCAR-4; 1.52 µM (inactive) with SNB-19; 0.452 µM in the test on HCT-15; 0.224 µM (active) in the test on SW-620; 1.22 µM (inactive) in the test on KM12; 1.32 µM (inactive) in the test on UACC-257. Also, the GI50 in the test on SK-MEL-28 was 1.37 µM (inactive); with BT-549, 1.54 µM (inactive); in the test with SN12C, 0.644 µM (active); with OVCAR-5, 1.73 µM (inactive); with NCI/ADR-RES, 1.71 µM (inactive); with SF-268 it was 1.55 µM (inactive). In addition, the GI50 is 1.21 µM (inactive) in the test with SK-MEL-5 and 0.525 µM (active) in the test on DU-145.
With `CC1=NN(c2nc(N)nc(/C(C#N)=C\c3cccc([N+](=O)[O-])c3)n2)C(C)(C)C1`, the GI50 in the test on UACC-62 is 19.6 µM (inactive); in the test with EKVX it was 29.9 µM (inactive); in the test with SF-539, 8.2 µM (inactive); with NCI-H522, 2.92 µM (inactive); with RPMI-8226 it was 5.65 µM (inactive); in the test on U-251, 6.78 µM (inactive). Besides, the GI50 in the test with OVCAR-4 is 10 µM (inactive); in the test with SNB-19, 10.8 µM (inactive); in the test on HCT-15 it was 13.2 µM; in the test on SW-620, 8.75 µM (inactive); in the test on KM12 it was 14.9 µM (inactive); in the test with UACC-257, 20.7 µM (inactive). Further, the GI50 in the test on SK-MEL-28 is 19.1 µM (inactive); with BT-549 it was > 20.7 µM (inactive); in the test on SN12C, 25.2 µM (inactive); with OVCAR-5 it was 24.4 µM (inactive); in the test with NCI/ADR-RES it was 18.8 µM (inactive); in the test on SF-268, 10.7 µM (inactive). In addition, the GI50 with SK-MEL-5 was 20.5 µM (inactive); with DU-145 it was 12.7 µM (inactive).
Regarding `CC1(C)OC2CN(C(=O)OCc3ccccc3)C(CO)C2O1` (stereo not given), the GI50 with UACC-62, in the test with EKVX, in the test on SF-539, with NCI-H522, in the test with RPMI-8226 and with U-251 was > 100 µM (inactive) each time. Moreover, the GI50 with OVCAR-4 is > 100 µM (inactive); with SNB-19, > 100 µM (inactive); in the test on HCT-15 it was greater than 100 µM; in the test on SW-620, > 100 µM (inactive); with KM12, > 100 µM (inactive); with UACC-257, > 100 µM (inactive). Also, the GI50 in the test on SK-MEL-28, in the test on BT-549, with SN12C, with OVCAR-5, with NCI/ADR-RES and in the test with SF-268 was > 100 µM (inactive) throughout. For the same compound, the GI50 with SK-MEL-5 and with DU-145 was > 100 µM (inactive) each time.
Regarding `CCOC(=O)c1c(N2CCOCC2)[nH]c(=O)c(C(c2ccc(OC)cc2)c2c(O)c(C(=O)OCC)c(N3CCOCC3)[nH]c2=O)c1O`, the GI50 in the test on UACC-62, in the test with EKVX, in the test with SF-539, in the test on NCI-H522, in the test on RPMI-8226 and with U-251 was > 100 µM (inactive) in each case. Moreover, the GI50 in the test on OVCAR-4 is > 100 µM (inactive); in the test on SNB-19, > 100 µM (inactive); with HCT-15, greater than 100 µM; in the test on SW-620, > 100 µM (inactive); with KM12 it was > 100 µM (inactive); with UACC-257, > 100 µM (inactive). Besides, the GI50 in the test on SK-MEL-28, in the test with BT-549, in the test with SN12C, with OVCAR-5, with NCI/ADR-RES and with SF-268 was > 100 µM (inactive) throughout. Besides, the GI50 in the test with SK-MEL-5 and in the test on DU-145 was > 100 µM (inactive) in each case.
